Laboratory results reported in PMC12392461, “Beyond Estrogenicity: A Comparative Assessment of Bisphenol A and Its Alternatives in In Vitro Assays Questions Safety of Replacements” (Environmental Science & Technology, 2025).
Like-named read-outs stand apart in the source and are kept apart here.

Tests used:
[1] = molecular target: T1, Aryl hydrocarbon receptor (Rattus norvegicus, UniProt P41738); conditions: for EC10, linear: linear model fit; for logEC10: log-logistic model fit; for log(1/EC10) AhR: input of the ToxPi score, values up to 1.00
T1 sequence (P41738 10-853): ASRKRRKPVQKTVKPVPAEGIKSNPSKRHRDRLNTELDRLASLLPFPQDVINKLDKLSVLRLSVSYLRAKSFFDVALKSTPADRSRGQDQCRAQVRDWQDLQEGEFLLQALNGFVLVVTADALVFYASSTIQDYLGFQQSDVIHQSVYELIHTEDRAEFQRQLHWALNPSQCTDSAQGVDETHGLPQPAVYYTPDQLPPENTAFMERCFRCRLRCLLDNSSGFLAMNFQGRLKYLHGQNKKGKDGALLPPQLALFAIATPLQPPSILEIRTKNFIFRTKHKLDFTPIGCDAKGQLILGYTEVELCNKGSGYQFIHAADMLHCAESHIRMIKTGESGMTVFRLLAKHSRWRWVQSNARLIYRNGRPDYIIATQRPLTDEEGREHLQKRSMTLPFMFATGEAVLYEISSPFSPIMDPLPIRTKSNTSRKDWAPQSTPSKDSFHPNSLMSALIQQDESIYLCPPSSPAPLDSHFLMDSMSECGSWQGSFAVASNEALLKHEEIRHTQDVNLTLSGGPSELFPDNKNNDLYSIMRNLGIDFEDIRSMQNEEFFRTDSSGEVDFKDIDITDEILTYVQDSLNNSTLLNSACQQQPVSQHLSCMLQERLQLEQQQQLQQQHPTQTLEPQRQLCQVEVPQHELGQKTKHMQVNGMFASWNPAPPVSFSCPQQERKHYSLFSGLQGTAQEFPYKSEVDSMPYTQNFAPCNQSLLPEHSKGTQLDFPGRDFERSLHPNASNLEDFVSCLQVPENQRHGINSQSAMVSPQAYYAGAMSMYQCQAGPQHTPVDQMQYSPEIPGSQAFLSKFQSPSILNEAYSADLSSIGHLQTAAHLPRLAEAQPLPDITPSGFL
Description: (§1) All bioassay media components and the ERα-UAS-bla GripTite and PPARγ-UAS-bla cells were obtained from Thermo Fisher Scientific (Waltham, MA, USA). AREc32 reporter gene cells based on MCF7 were provided by C. Roland Wolf (Cancer Research UK); AhR CALUX cells (H4L7.5c2 derived from H4IIe) were provided by Michael Denison (UC Davis, USA); and SH-SY5Y cells were purchased from Sigma-Aldrich.
(§2) Cell culture conditions and bioassay protocols including response detection are provided in Text S2.1–2.4 and Table S3. − Cell viability was determined from cell confluency using an IncuCyte S3 Live-Cell Analysis System (Sartorius AG, Essen, Germany) before and after exposure, except for SH-SY5Y cells (live–dead staining with Nuclear Green LcS1 and propidium iodide, Abcam, UK). For metabolic activation experiments, cell viability was assessed using the ToxBLAzer DualScreen Kit (Thermo Fisher Scientific) to capture the remaining toxicity in ERα-UAS-bla GripTite after treatment with the aCYP catalyst (details in Text S2.4).
(§3) For ARE, the concentration that triggered an induction ratio of 1.5 (ECIR1.5) was used as the benchmark value, as detailed in Text S2.5. IC10 values also served as a threshold for data analysis in all assays; only concentrations below IC10 were considered when deriving EC10 or ECIR1.5. […]
(§4) S2: Cell culture and bioassays
(§5) S2.1: Cell Culturing Conditions
(§6) All suppliers and sources are given in detail in SI-Excel S3. The bioassay media for the different assays were prepared as follows: Assay medium for ER alpha-UAS-bla GripTite (ERα) and PPAR gamma-UAS-bla 293H (PPARγ) was prepared with 98% Opti-MEM, supplemented with 2% charcoal-stripped FBS, and 100 U/mL penicillin-streptomycin. MitoOxTox and AhR assay medium was comprised of 90% DMEM with GlutaMAX, supplemented with 10% FBS, and 100 U/mL penicillin-streptomycin. Neurotoxicity assay medium consisted of the neurobasal […]
(§7) (1 picture or pasted object on this page, not shown here) […]
(§8) medium, supplemented with 2% B-27 Supplement and 2 mM GlutaMAX Supplement. SH - SY5Y cells were differentiated with 10 µM all-trans retinoic acid prior to the assay.
(§9) S2.2: Cell Seeding and Incubation. For all bioassays, cell suspensions in the respective assay medium were dispensed into each well of 384-well plates using a MultiFlo Dispenser (Biotek, (now Agilent), Winooski, VT, U.S.). After seeding, the plates were incubated at 37° C and 5% CO₂ for […]. The final cell densities and plate types were as follows: Black poly-D-lysine coated 384-well plates (Product No. 354663, Corning Inc., NYC, U.S.) were used for PPARγ:
(§10) 6500 cells/well, ERα: 5000 cells/well. White 384-well plates with a clear bottom (Product No.
(§11) 781098, Greiner, Kremsmünster, Austria) were utilized for the MitoOxTox assay: 2650

SH-SY5Y cells = test: cells; conditions: for EC10: Homo sapiens, SH-SY5Y; for Specificity ratio (SRbaseline) SRNOI: against baseline cytotoxicity; for Relative effect potency REPNOI: relative to BPA; for EC10, linear: linear model;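 as to Relative effect potency REPNOI: EC10 of BPA divided by EC10 of the test compound so values above 1 mean more potent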
Description: as §1, §2, §3, §4, §5, §6, §7, §8, §9, §10, §11

[2] = read-out: EC10, linear transformed
[3] = NOI bioassay, dosing range all, log-logistic model
[4] = against experimental cytotoxicity

CC1(C)C(O)C(C)(C)C1O (racemic) [r-TMCD, 2,2,4,4-Tetramethyl-1,3-cyclobutanediol (racemate)]
EC10, linear ([1]; Bioassay AhR, dosing range all): no effect | logEC10 ([1]; Bioassay AhR, dosing range all): no effect | EC10 (SH-SY5Y cells; read-out: EC10, NOI): 0.00599 M | EC10 (SH-SY5Y cells; read-out: EC10, NOI (M)): 0.00599 M | EC10 (SH-SY5Y cells; read-out: EC10, linear): 0.00494 M | EC10 (SH-SY5Y cells; [2]): 0.00599 M | EC10 (SH-SY5Y cells; read-out: logEC10): 0.00603 M | Specificity ratio (SRbaseline) SRNOI (SH-SY5Y cells): 0.17 | Relative effect potency REPNOI (SH-SY5Y cells): 0.00848

O=S(=O)(c1ccc(O)cc1)c1ccccc1O [2,4-BPS, 2,4'-Dihydroxydiphenyl sulfone]
EC10, linear ([1]; Bioassay AhR, dosing range all): no effect | logEC10 ([1]; Bioassay AhR, dosing range all): no effect | log(1/EC10) AhR [1]: 0.74 | EC10 (SH-SY5Y cells; [2]): 0.000871 M | EC10, linear (SH-SY5Y cells; NOI bioassay, dosing range all): no effect | logEC10 (SH-SY5Y cells; [3]): no effect

CC(C)(c1ccc(OCC2CO2)cc1)c1ccc(OCC2CO2)cc1 (centres unmarked) [BADGE, Bisphenol A diglycidyl ether]
EC10, linear ([1]; Bioassay AhR, dosing range all): no effect | logEC10 ([1]; Bioassay AhR, dosing range all): no effect | EC10 (SH-SY5Y cells; read-out: EC10, NOI): 3.81e-05 M | EC10 (SH-SY5Y cells; read-out: EC10, NOI (M)): 3.81e-05 M | EC10 (SH-SY5Y cells; read-out: EC10, linear): 3.69e-05 M | EC10 (SH-SY5Y cells; [2]): 4.5e-05 M | EC10 (SH-SY5Y cells; read-out: logEC10): 3.8e-05 M | Specificity ratio (SRbaseline) SRNOI (SH-SY5Y cells): 0.48 | Specificity ratio (SRcytotoxicity) SRNOI (SH-SY5Y cells; [4]): 1.50 | Relative effect potency REPNOI (SH-SY5Y cells): 1.33

CC(C)CC(C)(c1ccc(O)cc1)c1ccc(O)cc1 [BP-MIBK, 4,4'-(1,3-Dimethylbutylidene)diphenol]
EC10, linear ([1]; Bioassay AhR, dosing range all): no effect | logEC10 ([1]; Bioassay AhR, dosing range all): no effect | log(1/EC10) AhR [1]: 0.86 | EC10 (SH-SY5Y cells; [2]): 5.05e-05 M | EC10, linear (SH-SY5Y cells; NOI bioassay, dosing range all): no effect | logEC10 (SH-SY5Y cells; [3]): no effect

CC(C)(c1ccc(O)cc1)c1ccc(O)cc1 [BPA, 4,4'-(Propane-2,2-diyl)diphenol, reference compound]
EC10, AhR (M) [1]: 2.64 × 10^–4 M | EC10, linear transformed ([1]; Bioassay AhR, dosing range all): 3.80E-04 | EC10, linear ([1]; Bioassay AhR, dosing range all): 2.64E-04 | logEC10 ([1]; Bioassay AhR, dosing range all): no effect | SR-ScoreAhR ([1]; SR-Score, sigma k=1, x=5): 0.00737 | Specificity ratio (SRbaseline) SRAhR ([1]; against baseline cytotoxicity): 0.10 | EC10, AhR ([1]; effect): 264 µM | log(1/EC10) AhR [1]: 0.79 | Specificity ratio (SRcytotoxicity) SRAhR ([1]; rat, 24 h): 0.00 | SR (AhR) ([1]; specificity ratio): ≤ 10 | EC10 (SH-SY5Y cells; read-out: EC10, NOI): 5.08e-05 M | EC10 (SH-SY5Y cells; read-out: EC10, NOI (M)): 5.08e-05 M | EC10 (SH-SY5Y cells; read-out: EC10, linear): 7.16e-05 M | EC10 (SH-SY5Y cells; [2]): 7.63e-05 M | EC10 (SH-SY5Y cells; read-out: logEC10): 5.13e-05 M | Specificity ratio (SRbaseline) SRNOI (SH-SY5Y cells): 0.40 | Specificity ratio (SRcytotoxicity) SRNOI (SH-SY5Y cells; human, 24 h): 4.68 | Relative effect potency REPNOI (SH-SY5Y cells): 1.00 | SR (neurite outgrowth inhibition) (SH-SY5Y cells; specificity ratio): < 10

Oc1ccc(C(c2ccc(O)cc2)(C(F)(F)F)C(F)(F)F)cc1 [BPAF, 4,4'-(1,1,1,3,3,3-Hexafluoropropane-2,2-diyl)diphenol]
EC10, linear ([1]; Bioassay AhR, dosing range all): no effect | logEC10 ([1]; Bioassay AhR, dosing range all): no effect | log(1/EC10) AhR [1]: 0.92 | EC10 (SH-SY5Y cells; read-out: EC10, NOI): 1.62e-05 M | EC10 (SH-SY5Y cells; read-out: EC10, NOI (M)): 1.62e-05 M | EC10 (SH-SY5Y cells; read-out: EC10, linear): 1.93e-05 M | EC10 (SH-SY5Y cells; [2]): 2.61e-05 M | EC10 (SH-SY5Y cells; read-out: logEC10): 1.62e-05 M

CC(c1ccccc1)(c1ccc(O)cc1)c1ccc(O)cc1 [BPAP, 4,4'-(1-Phenylethylidene)bisphenol]
EC10, linear ([1]; Bioassay AhR, dosing range all): no effect | logEC10 ([1]; Bioassay AhR, dosing range all): no effect | EC10 (SH-SY5Y cells; read-out: EC10, NOI): 5.12e-05 M | EC10 (SH-SY5Y cells; read-out: EC10, NOI (M)): 5.12e-05 M | EC10 (SH-SY5Y cells; read-out: EC10, linear): 4.83e-05 M | EC10 (SH-SY5Y cells; [2]): 5.09e-05 M | EC10 (SH-SY5Y cells; read-out: logEC10): 5.13e-05 M

CCC(C)(c1ccc(O)cc1)c1ccc(O)cc1 [BPB, 4,4'-(Butane-2,2-diyl)diphenol]
EC10, linear ([1]; Bioassay AhR, dosing range all): no effect | logEC10 ([1]; Bioassay AhR, dosing range all): no effect | log(1/EC10) AhR [1]: 0.83 | EC10 (SH-SY5Y cells; read-out: EC10, NOI): 2.8e-05 M | EC10 (SH-SY5Y cells; read-out: EC10, NOI (M)): 2.8e-05 M | EC10 (SH-SY5Y cells; read-out: EC10, linear): 4.03e-05 M | EC10 (SH-SY5Y cells; [2]): 3.89e-05 M | EC10 (SH-SY5Y cells; read-out: logEC10): 2.82e-05 M | Specificity ratio (SRbaseline) SRNOI (SH-SY5Y cells): 0.59 | Specificity ratio (SRcytotoxicity) SRNOI (SH-SY5Y cells; [4]): 5.98 | Relative effect potency REPNOI (SH-SY5Y cells): 1.81

Oc1ccc(C2(c3ccc(O)cc3)CCCCC2)cc1 [BPZ, 1,1'-Bis(4-hydroxyphenyl)cyclohexane]
EC10 (SH-SY5Y cells; read-out: EC10, NOI): 3.05e-05 M | EC10 (SH-SY5Y cells; read-out: EC10, NOI (M)): 3.05e-05 M | EC10 (SH-SY5Y cells; read-out: EC10, linear): 3.52e-05 M | EC10 (SH-SY5Y cells; [2]): 4.31e-05 M | EC10 (SH-SY5Y cells; read-out: logEC10): 3.02e-05 M

CC(C)(c1cc(Br)c(O)c(Br)c1)c1cc(Br)c(O)c(Br)c1 [TBBPA, 3,3',5,5'-Tetrabromobisphenol A]
logEC10 (SH-SY5Y cells): no effect | EC10, linear (SH-SY5Y cells; NOI bioassay, dosing range all): no effect
